Measurements published in ChEMBL document CHEMBL4428063, “Novel Pyrimidine Toll-like Receptor 7 and 8 Dual Agonists to Treat Hepatitis B Virus” (J Med Chem, 2016).
Calls of active or inactive are those of the source. No cut-off for these calls is given here.

Key:
[1] = Intrinsic clearance in dog hepatocytes at 1 uM measured after 120 mins; format: ADME, cell-based, Canis lupus familiaris, Hepatocyte; conditions: 2 h
HepG2 = experiment: Cytotoxicity against human HepG2 cells measured after 72 hrs by multiplex end point analysis; format: cell-based; conditions: hepg2, 72 h
[2] = AUC(0 to last) in cynomolgus monkey plasma at 3 mg/kg, administered through oral gavage measured after 24 hrs; format: ADME, organism-based, Macaca fascicularis; design: dose 3 mg/kg, time 0 - last, route oral
[3] = Ratio of drug level in Sprague-Dawley rat liver to plasma at 10 mg/kg, po; format: ADME, organism-based; conditions: liver and plasma
[4] = Oral bioavailability in cynomolgus monkey at 3 mg/kg, measured after 24 hrs; format: ADME, organism-based, Macaca fascicularis; conditions: in vivo
[5] = Tmax in cynomolgus monkey plasma at 9 mg/kg, administered through oral gavage measured after 24 hrs; format: ADME, organism-based, Macaca fascicularis
[6] = Plasma concentration in C57Bl/6 mouse infected with HBV genotype D at 5 mg/kg, po dosed once per week for 8 weeks and measured after 164 hrs after dosing prior to subsequent dosing; format: ADME, organism-based; conditions: in vivo
[7] = molecular target: Toll-like receptor 5 (Homo sapiens) (UniProt O60602); experiment: Agonist activity at wild-type human TLR5 expressed in HEK293 cells up to 25 uM measured after 6 hrs by NF-kappaB luciferase reporter gene assay; format: cell-based
[8] = Cmax in Sprague-Dawley rat plasma at 10 mg/kg, po; format: ADME, organism-based; design: dose 10 mg/kg, route oral
[9] = AUC(0 to last) in cynomolgus monkey plasma at 9 mg/kg, administered through oral gavage measured after 24 hrs; format: ADME, organism-based, Macaca fascicularis; design: dose 9 mg/kg, route oral, time 0 - last
[10] = molecular target: T1, Toll-like receptor 7 (Homo sapiens) (UniProt Q9NYK1); experiment: Agonist activity at human TLR7 expressed in HEK293 cells measured after 6 hrs by NF-kappaB luciferase reporter gene assay; format: cell-based
T1 sequence (whole entry): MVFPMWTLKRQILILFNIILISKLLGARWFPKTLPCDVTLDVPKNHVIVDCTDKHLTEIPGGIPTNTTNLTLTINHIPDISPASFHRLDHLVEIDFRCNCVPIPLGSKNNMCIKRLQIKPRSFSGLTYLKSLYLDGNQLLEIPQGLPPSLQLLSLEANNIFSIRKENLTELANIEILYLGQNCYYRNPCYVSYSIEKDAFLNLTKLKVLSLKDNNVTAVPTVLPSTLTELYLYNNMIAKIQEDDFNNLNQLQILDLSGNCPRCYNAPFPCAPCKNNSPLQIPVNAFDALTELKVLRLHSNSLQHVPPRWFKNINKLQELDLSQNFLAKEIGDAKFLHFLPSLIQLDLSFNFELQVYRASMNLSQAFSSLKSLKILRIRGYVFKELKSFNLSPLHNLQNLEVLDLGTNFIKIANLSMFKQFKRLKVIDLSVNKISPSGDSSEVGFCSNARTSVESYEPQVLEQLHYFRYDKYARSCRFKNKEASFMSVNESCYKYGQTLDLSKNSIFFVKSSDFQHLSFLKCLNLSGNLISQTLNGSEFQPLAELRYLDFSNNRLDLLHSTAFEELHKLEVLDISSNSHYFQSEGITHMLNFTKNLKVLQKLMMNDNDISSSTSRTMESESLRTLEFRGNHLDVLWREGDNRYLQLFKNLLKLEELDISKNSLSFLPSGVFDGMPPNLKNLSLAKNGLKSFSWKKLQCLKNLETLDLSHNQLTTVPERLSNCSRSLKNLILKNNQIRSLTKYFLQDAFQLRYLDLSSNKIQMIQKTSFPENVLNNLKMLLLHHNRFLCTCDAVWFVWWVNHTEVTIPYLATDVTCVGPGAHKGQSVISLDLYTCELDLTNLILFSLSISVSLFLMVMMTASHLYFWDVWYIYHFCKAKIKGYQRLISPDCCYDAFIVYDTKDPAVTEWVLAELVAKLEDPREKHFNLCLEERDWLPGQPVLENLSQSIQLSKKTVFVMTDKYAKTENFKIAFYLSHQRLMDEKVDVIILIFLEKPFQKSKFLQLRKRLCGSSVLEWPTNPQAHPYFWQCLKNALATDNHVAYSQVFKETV

[11] = Intrinsic clearance in cynomolgus monkey hepatocytes at 1 uM measured after 120 mins; format: ADME, cell-based, Macaca fascicularis, Hepatocyte; conditions: 2 h
human MDR1 = experiment: Apparent permeability across apical to basolateral side in MDCK cells expressing human MDR1 at 1 uM by LC-MS/MS analysis; format: ADME, cell-based, Canis lupus familiaris; conditions: dog
[12] = molecular target: T2, Toll-like receptor 6 (Homo sapiens) (UniProt Q9Y2C9); experiment: Agonist activity at wild-type human TLR6 expressed in HEK293 cells up to 25 uM measured after 6 hrs by NF-kappaB luciferase reporter gene assay; format: cell-based
T2 sequence (whole entry): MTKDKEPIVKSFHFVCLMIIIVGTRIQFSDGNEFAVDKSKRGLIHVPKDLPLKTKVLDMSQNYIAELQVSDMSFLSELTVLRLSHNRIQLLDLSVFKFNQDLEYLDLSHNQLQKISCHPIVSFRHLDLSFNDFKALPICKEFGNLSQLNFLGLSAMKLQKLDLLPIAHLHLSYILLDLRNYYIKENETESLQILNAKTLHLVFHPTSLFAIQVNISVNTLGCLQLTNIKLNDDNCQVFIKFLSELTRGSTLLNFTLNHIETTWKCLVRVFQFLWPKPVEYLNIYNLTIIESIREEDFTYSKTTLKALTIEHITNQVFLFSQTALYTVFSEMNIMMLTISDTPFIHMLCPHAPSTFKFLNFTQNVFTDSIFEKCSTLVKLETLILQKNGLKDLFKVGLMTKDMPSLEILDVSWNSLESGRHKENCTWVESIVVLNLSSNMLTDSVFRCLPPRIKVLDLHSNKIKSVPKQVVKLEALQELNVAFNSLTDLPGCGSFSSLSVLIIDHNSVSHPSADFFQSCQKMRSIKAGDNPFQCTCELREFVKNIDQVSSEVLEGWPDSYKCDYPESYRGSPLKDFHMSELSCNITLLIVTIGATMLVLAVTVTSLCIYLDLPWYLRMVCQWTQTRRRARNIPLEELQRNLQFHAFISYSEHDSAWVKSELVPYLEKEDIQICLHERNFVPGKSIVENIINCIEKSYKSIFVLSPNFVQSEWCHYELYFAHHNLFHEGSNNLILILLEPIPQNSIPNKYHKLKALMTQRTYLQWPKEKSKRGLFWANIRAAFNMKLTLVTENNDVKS

[13] = molecular target: Toll-like receptor 3 (Homo sapiens) (UniProt O15455); experiment: Agonist activity at wild-type human TLR3 expressed in HEK293 cells up to 25 uM measured after 6 hrs by NF-kappaB luciferase reporter gene assay; format: cell-based
[14] = molecular target: Toll-like receptor 4 (Homo sapiens) (UniProt O00206); experiment: Agonist activity at wild-type human TLR4 expressed in HEK293 cells up to 25 uM measured after 6 hrs by NF-kappaB luciferase reporter gene assay; format: cell-based
[15] = Intrinsic clearance in C57Bl/6 mouse liver microsomes assessed per mg protein at 1 uM measured after 60 mins; format: ADME, Microsome; conditions: read-out: CLH
[16] = molecular target: T1, Toll-like receptor 7 (Homo sapiens); experiment: Activation of TLR7 in human PBMCs incubated for overnight duration followed by compound-treated cell supernatant conditioned media transfer to HCV1b transfected human HuH7-luc/neo replicon cells assessed as induction of INFalpha-mediated suppression of virus growth by firefly-luciferase reporter gene assay
[17] = Tmax in C57Bl/6 mouse at 1 to 50 mg/kg, po; format: ADME, organism-based; conditions: in vivo
[18] = AUC(0 to last) in cynomolgus monkey plasma at 30 mg/kg, administered through oral gavage measured after 24 hrs; format: ADME, organism-based, Macaca fascicularis; design: dose 30 mg/kg, time 0 - last, route oral

Chain of Toll-like receptor 5 (Homo sapiens) (O60602 whole entry): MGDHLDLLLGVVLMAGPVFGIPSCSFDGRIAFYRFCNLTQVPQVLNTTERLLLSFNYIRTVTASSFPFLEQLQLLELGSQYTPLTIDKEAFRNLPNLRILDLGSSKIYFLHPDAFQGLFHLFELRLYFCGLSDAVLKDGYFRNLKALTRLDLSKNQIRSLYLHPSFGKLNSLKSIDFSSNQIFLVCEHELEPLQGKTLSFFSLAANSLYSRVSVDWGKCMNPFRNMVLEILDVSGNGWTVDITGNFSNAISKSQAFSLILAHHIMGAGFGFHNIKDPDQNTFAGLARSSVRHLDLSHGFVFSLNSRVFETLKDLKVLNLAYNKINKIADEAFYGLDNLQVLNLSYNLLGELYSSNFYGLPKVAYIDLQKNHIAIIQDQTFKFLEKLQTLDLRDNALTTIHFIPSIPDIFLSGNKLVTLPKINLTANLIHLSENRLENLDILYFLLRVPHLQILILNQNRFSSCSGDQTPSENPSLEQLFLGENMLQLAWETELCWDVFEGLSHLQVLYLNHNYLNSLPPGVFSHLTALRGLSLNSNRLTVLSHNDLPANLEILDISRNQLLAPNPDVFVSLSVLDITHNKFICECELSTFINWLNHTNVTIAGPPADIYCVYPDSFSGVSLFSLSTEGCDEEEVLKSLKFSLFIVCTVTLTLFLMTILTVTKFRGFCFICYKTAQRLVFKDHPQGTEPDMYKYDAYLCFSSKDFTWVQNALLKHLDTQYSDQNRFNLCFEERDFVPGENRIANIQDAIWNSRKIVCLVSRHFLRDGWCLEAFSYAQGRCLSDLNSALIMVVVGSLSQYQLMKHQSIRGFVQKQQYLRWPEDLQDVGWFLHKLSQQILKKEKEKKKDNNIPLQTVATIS
Chain of Toll-like receptor 3 (Homo sapiens) (O15455 whole entry): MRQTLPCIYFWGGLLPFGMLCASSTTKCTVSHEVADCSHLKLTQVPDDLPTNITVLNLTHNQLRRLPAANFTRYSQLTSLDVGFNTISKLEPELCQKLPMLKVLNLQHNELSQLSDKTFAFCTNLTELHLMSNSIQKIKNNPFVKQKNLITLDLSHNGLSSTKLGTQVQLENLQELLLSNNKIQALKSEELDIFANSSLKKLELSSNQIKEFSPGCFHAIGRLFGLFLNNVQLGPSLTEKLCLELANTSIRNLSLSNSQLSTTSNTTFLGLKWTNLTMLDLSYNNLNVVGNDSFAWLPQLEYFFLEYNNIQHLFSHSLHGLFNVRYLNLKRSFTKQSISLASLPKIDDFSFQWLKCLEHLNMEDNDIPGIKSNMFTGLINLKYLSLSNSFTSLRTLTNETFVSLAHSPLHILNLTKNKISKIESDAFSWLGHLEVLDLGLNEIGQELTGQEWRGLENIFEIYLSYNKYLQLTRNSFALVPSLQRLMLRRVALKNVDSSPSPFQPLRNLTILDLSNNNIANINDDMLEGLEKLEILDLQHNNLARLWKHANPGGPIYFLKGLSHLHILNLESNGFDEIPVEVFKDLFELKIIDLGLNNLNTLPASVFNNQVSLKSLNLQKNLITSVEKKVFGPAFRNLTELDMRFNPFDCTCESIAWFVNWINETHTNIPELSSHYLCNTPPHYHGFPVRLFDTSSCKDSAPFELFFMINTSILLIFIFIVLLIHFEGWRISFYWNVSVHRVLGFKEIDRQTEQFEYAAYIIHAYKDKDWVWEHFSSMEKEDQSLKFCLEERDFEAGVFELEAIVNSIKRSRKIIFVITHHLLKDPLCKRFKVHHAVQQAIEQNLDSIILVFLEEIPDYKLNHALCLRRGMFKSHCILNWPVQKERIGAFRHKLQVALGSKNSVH
Chain of Toll-like receptor 4 (Homo sapiens) (O00206 whole entry): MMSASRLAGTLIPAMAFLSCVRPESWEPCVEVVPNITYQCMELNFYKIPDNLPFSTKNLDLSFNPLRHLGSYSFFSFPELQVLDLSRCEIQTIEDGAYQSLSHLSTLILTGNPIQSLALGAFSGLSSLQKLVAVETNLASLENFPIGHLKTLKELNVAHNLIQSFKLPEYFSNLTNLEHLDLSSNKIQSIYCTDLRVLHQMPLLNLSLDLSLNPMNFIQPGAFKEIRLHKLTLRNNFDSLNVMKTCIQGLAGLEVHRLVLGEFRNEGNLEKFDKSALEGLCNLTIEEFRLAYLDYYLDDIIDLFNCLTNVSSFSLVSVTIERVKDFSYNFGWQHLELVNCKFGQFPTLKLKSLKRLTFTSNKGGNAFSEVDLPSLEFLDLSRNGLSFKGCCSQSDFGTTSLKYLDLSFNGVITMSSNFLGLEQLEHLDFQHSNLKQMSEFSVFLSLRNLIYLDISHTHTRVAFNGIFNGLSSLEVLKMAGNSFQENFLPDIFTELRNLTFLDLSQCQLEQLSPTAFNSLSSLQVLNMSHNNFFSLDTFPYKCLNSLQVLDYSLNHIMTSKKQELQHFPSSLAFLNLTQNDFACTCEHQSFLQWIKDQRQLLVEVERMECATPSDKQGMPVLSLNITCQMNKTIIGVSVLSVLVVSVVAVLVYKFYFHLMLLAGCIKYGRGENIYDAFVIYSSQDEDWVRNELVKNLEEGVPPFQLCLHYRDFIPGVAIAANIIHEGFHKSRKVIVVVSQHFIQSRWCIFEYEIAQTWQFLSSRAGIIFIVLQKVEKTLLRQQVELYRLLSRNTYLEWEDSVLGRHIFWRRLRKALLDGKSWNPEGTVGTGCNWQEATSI

- CLH [1]: 99 µL/min
- AUC(0-t) at 24 h [2]: 11 ng·h/mL
- Kp [3]: 14
- bioavailability [4]: 0.8%
- Tmax [5]: 30 to 120 min
- Drug uptake [6]: Not Active
- Activity [7]: inactive
- Cmax [8]: 65 ng/mL
- AUC(0-t) at 24 h [9]: 72 ng·h/mL
- LED [10]: 1.6 µM
- CLH [11]: 103 µL/min
- Papp A→B at 1 µM (human MDR1): 23 ×10⁻⁶ cm/s
- Activity [12]: inactive
- Activity [13]: inactive
- Activity [14]: inactive
- microsomal CLint at 1 µM [15]: 5 µL/min/mg
- LED [16]: 0.5 µM
- Tmax [17]: 30 to 60 min
- AUC(0-t) at 24 h [18]: 583 ng·h/mL
SMILES: CCCC[C@@H](CCO)Nc1nc(N)ncc1OC
- EC20 (HepG2): > 86 µM
